Columns and labels:
[1] = PAMPA-BBB permeability; assay type: in vitro ADME; details: experimentally measured BBB permeability
Description: At the same time, they needed to fulfill the requirement for good BBB permeation in order to achieve sufficient brain exposure. Although transport across the BBB is quite a complex phenomenon, passive diffusion is still the primary route for exogenous substances to access that target. So, the selected compounds were subjected to an in vitro PAMPA-BBB assay, relying on the capacity of the method in distinguishing the candidates with good BBB passive permeabilities. […].
The blood–brain barrier permeabilities were measured by PAMPA Permeability Analyzer (pIONInc, Billerica, MA, USA). The tested compounds and reference standards were prepared as 10 mM stock solutions in DMSO and further diluted in Prisma HT buffer pH 7.4. The experiment followed the BBB Protocol: 200 μL sample’s aliquots in the donor compartment, Brain Sink Buffer aliquots (200 μL) in the acceptor wells, BBB-1 lipid for coating the permeation membranes, “sandwich” assembly with the acceptor plate on top of the donor one, and incubation at temperature 25 °C for 4 h under humidity control without stirring. For permeability assessment, UV spectra of the blank, reference, donor, and acceptor plates were collected at wavelength 250–500 nm. […]. Samples were analyzed in triplicate and average values were reported. […]. Theophylline, corticosterone, and propranolol HCl were used as reference standards to control the quality and consistency of the BBB permeability experiment.

[2] = ABTS radical scavenging assay; details: 734 nm after 5 min
Description: These compounds were also tested for their antioxidant activities by using the ABTS [2,2′-azinobis (3-ethylbenzothiazoline-6-sulfonic acid)] cation radical decolorization method (Table 4). The BHT [41] was used for comparison. The ABTS cation radical is produced by oxidation of the ABTS molecule with strong oxidizing agents, such as potassium persulfate in water.
For ABTS assay, the procedure followed the method of Arnao et al. [71] with some modifications. […] The working solution was then prepared by mixing the two stock solutions in equal quantities and allowing them to react for 14 h at room temperature in the dark. […] A fresh ABTS solution was prepared for each assay. […] The ABTS scavenging capacity of the compound was calculated as follows:ABTS radical scavenging activity (%) = ((Abscontr. − Abssample)/Abscontr.) ×100, where Abscontr. is the absorbance of DPPH radical with 300 μL MeOH, Abssample is the absorbance of DPPH radical solution mixed with the sample. […] BHT was used as positive control.

[3] = biological target: T1, butyrylcholinesterase from equine serum (Equus caballus, UniProt P81908); assay: biochemical; details: for inhibition at 1000 µM: 1 mM solution of the tested compound, read-out: Activity [%] (inhibition percentage of BChE); for SI BChE: IC50(AChE)/IC50(BChE); for IC50: mean ± SD of three experiments, read-out: BChE IC50
T1 construct: butyrylcholinesterase from equine serum; purchased Sigma-Aldrich, Hamburg, Germany; host or cells: equine serum
Description: (§1) AChE and BChE inhibitory activity was measured using the microplate assay described by Ellman et al. [68] with the modifications added by López et al. [36]. The compounds were tested at concentrations between 10^−3 and 10^−8 M. First, all compounds were dissolved in 1% DMSO in a concentration of 1 mg/mL.
(§2) Incubation of the plates was performed at room temperature for 30 min. Then, 100 μL of substrate solution were added to start the enzymatic reaction. […] Enzyme activity was calculated as an inhibition percentage compared to an assay including buffer instead of an inhibitor. […] All data were analyzed with the software package Prism 3 (Graph Pad Inc., San Diego, CA, USA).

[4] = system: CCL-1 cells; assay: MTT cytotoxicity, CCL-1 normal fibroblasts; assay type: cell-based, murine; details: Mus musculus, Fibroblast; MTT, 72 h exposure; read-out: CCL-1 IC50
[5] = biological target: T2, Acetylcholinesterase from Electrophorus electricus (Electrophorus electricus, UniProt O42275); assay: biochemical; assay type: biochemical; details: for inhibition at 1000 µM: 1 mM solution of the tested compound, read-out: Activity [%] (inhibition percentage of AChE); for IC50: mean ± SD of three experiments, read-out: AChE IC50
T2 construct: purchased Sigma-Aldrich, Hamburg, Germany
Description: as §1, §2

[6] = Lipid peroxidation in linoleic acid system, FTC method; details: 10 mM compound, 500 nm
Description: The antioxidant activity of studied compounds against lipid peroxidation was measured through ammonium thiocyanate assay as described by Takao et al. [66] with some modifications. […] A 10 μL aliquot of the reaction solution was then added to 200 μL of 70% (v/v) ethanol and 10 μL of 30% (w/v) ammonium thiocyanate. […] Aliquots were assayed every 24 h until the day after the absorbance of the control solution (without compound) reached maximum value. BHT (10 mM) was used as positive control.

[7] = Ferric reducing antioxidant power (FRAP); details: 150 μL of 5 mM compound, 30 min, 593 nm, Trolox equivalent
[8] = system: SH-SY5Y cells; assay: MTT cytotoxicity, SH-SY5Y; assay type: cell-based, human; details: Homo sapiens, SH-SY5Y; MTT, 72 h exposure; read-out: SH-SY5Y IC50
[9] = DPPH radical scavenging activity; details: 300 μL of 5 mM compound in MeOH, 30 min, 517 nm
Description: The DPPH (2,2-diphenyl-1-picryl-hydrazyl-hydrate) free radical scavenging activity method is based on the neutralization of the DPPH radical by an antioxidant.
Free radical scavenging activity was measured using DPPH method [69, 70] with slight modification. Here, 300 μL of 5 mM solutions of tested compounds in MeOH were added to 2 mL methanolic solution of DPPH (2 mg/mL). […] Results were evaluated as percentage scavenging of radical:DPPH radical scavenging activity (%) = ((Abscontr. − Abssample)/Abscontr.) ×100, where Abscontr. is the absorbance of DPPH radical with 300 μL MeOH, Abssample is the absorbance of DPPH radical solution mixed with sample. BHT was used as positive control.

[10] = system: Neuro-2a cells; assay: MTT cytotoxicity, Neuro-2a; assay type: cell-based, murine; details: Mus musculus, N2a; MTT, 72 h exposure; read-out: Neuro-2a IC50

T1 sequence (P81908 whole entry): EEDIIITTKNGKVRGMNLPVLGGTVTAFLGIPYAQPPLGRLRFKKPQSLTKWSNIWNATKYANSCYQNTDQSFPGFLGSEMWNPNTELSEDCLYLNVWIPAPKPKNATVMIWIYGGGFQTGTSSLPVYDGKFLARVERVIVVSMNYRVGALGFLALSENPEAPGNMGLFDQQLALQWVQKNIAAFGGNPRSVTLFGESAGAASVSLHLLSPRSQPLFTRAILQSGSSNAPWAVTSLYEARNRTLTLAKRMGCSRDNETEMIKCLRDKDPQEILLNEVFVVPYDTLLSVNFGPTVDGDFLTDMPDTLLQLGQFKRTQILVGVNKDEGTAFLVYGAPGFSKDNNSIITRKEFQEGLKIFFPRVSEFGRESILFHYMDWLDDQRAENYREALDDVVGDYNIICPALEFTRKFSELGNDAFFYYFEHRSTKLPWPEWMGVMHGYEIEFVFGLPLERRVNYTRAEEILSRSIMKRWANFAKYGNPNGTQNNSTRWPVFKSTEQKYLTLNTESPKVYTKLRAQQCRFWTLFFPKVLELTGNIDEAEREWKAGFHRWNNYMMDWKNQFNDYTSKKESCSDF
T2 sequence (O42275 24-633): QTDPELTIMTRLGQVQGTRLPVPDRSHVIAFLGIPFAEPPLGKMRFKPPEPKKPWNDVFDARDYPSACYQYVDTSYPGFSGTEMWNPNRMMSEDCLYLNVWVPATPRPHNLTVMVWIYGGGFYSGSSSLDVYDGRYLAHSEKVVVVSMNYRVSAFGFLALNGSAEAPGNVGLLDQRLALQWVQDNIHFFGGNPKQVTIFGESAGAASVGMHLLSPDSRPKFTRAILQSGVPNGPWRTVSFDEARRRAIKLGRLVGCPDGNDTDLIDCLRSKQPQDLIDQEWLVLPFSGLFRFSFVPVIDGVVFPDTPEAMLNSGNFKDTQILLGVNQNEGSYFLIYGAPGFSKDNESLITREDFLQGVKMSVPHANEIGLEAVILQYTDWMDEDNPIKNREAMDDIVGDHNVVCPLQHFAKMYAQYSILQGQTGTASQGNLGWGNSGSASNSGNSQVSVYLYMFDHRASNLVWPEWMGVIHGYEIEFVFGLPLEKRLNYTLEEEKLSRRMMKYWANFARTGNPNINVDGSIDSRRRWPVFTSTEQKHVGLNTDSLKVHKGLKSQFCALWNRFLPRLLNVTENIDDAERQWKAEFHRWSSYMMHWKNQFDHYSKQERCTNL

| Compound | PAMPA BBB −logPe [1] | ABTS Activity [2] | IC50 [2] | inhibition at 1000 µM [3] | SI BChE [3] | IC50 [3] | IC50 [4] | inhibition at 1000 µM [5] | IC50 [5] | Absorbance Day 1 [6] | Absorbance Day 2 [6] | Absorbance Day 3 [6] | Absorbance Day 4 [6] | Absorbance Day 5 [6] | FRAP [7] | IC50 [8] | DPPH Activity [9] | IC50 [10] |
| --- | --- | --- | --- | --- | --- | --- | --- | --- | --- | --- | --- | --- | --- | --- | --- | --- | --- | --- |
| CC(C)(C)OC(=O)NCC(=O)N/N=C/c1cn(Cc2ccccc2)c2ccccc12 [3m, tert-butyl(2-{(2E)-2-[(1-benzyl-1H-indol-3-yl)methylidene]hydrazinyl}-2-oxoethyl)carbamate] | 4.377 | 36.20 ± 1.40% | > 5000 µM | 59.4% | 3.05 | 327 ± 34.3 µM | 65.4 ± 5.1 µM | 2.01% | > 1000 µM | 0.89 ± 0.09 | 0.89 ± 0.01 | 0.92 ± 0.05 | 0.95 ± 0.01 | 0.96 ± 0.08 | 19.06 ± 1.96 μMTE | 7.2 ± 1.8 µM | 32.06 ± 4.70% | 109 ± 9.1 µM |
| COc1ccc2[nH]cc(/C=N/NC(=O)Cc3c[nH]c4ccccc34)c2c1 [3n, 2-(1H-indol-3-yl)-N’-[(E)-(5-methoxy-1H-indol-3-yl)methylidene]acetohydrazide] | 4.084 | ≥100% | 770 ± 60 µM | 73.7% | 47.34 | 21.1 ± 1.48 µM | 48.2 ± 6.4 µM | 29.2% | > 1000 µM | 0.85 ± 0.05 | 0.87 ± 0.07 | 0.89 ± 0.04 | 0.90 ± 0.01 | 0.92 ± 0.06 | 14.30 ± 0.56 μMTE | 108 ± 9.4 µM | 40.62 ± 0.83% | 83.7 ± 8.3 µM |
| O=S(=O)(N/N=C/C1CCN(Cc2ccccc2)CC1)c1ccccc1 [5a, N’-[(E)-(1-benzylpiperidin-4-yl)methylidene]benzenesulfonohydrazide] | 4.749 | 43.80 ± 0.23% | > 5000 µM | 79.4% |  | 259 ± 4.9 µM | 157 ± 8.5 µM | 77% | 163 ± 10.7 µM | 0.83 ± 0.02 | 0.88 ± 0.08 | 0.89 ± 0.04 | 1.00 ± 0.04 | 1.10 ± 0.05 | 17.48 ± 0.90 μMTE | 142 ± 13.1 µM | 6.56 ± 0.78% | > 300 µM |
